# Assay results from PubChem BioAssay AID1224898.
# Test system: Trichuris muris adults ex vivo, WormWatcher motility, 24 h
# Test: motility loss in adult Trichuris muris, dose response, whole organism, ex vivo, WormWatcher (AID 1224898)
row,EC50 [µM],Compound
1,57,Cc1ccc(CN2C(=O)COCc3cc(-c4cccnc4)ccc32)cc1
2,26,O=C1COCc2cc(-c3cccnc3)ccc2N1Cc1ccc(C(F)(F)F)cc1
3,50,Cc1ccc(CN2C(=O)COCc3cc(-c4ccncc4)ccc32)cc1
4,35,Cc1ccc(CN2C(=O)COCc3cc(Br)ccc32)cc1
5,52,O=C1COCc2cc(-c3cccnc3)ccc2N1CC1CCCCC1
